What was measured:
[1] = system: progressive malignant pleural mesothelioma (MPM); assay: Phase II single-arm, multi-centric trial of lurbinectedin monotherapy: efficacy (PFS, OS, response); format: in vivo, human
Protocol: In order to evaluate the efficacy of lurbinectedin in the treatment of progressive malignant pleural mesothelioma (MPM), a Phase II single-arm, multi-centric, international trial was performed.
(§1) The primary endpoint was progression-free survival at 12 weeks (PFS12wks), defined as the absence of progression or death due to any cause during the first 12 weeks (±2 weeks) after registration. Secondary endpoints included progression-free survival (PFS), defined as the time from registration until radiologic progression or death due to any cause, whichever occurs first; overall survival (OS), defined as the time from registration until death due to any cause; objective response rate (ORR), defined as the proportion of patients who achieved complete (CR) or partial remission (PR) during the trial treatment; disease control rate (DCR) defined as the sum of CR, PR and stable disease (SD) at least for 12 weeks (SD≥12wks); duration of disease control, defined as the time from registration to progression or death due to any cause whichever occurs first for patients who had CR, PR or SD≥12wks; and adverse events (AE). All AEs were assessed according to NCI CTCAE v4.03. Patients lost to follow-up were censored at the last date they were known to be alive.
This trial was conducted in 6 centers in Switzerland and 3 in Italy. Subjects enrolled in this clinical trial were adult (age ≥ 18 years) patients having histologically or cytologically confirmed MPM, an Eastern Cooperative Oncology Group (ECOG) status of 0-1 and had progressed on or after one line of platinum-pemetrexed chemotherapy without being amenable to local treatment. Further inclusion criteria required an adequate hepatic, renal and bone marrow function (absolute neutrophil count ≥ 2 × 10^9 /L, platelet count ≥ 100 × 10^9 /L; aspartate aminotransferase and alanine aminotransferase ≤ 3.0 × ULN; creatinine clearance ≥ 30 mL/min/1.73).
Eligible patients could additionally have received one prior line of immunotherapy, but more than one lines of chemotherapy, including pemetrexed rechallenge, were not allowed. Further exclusion criteria covered known brain metastases or leptomeningeal disease, history of other hematologic or primary solid tumors within five years prior to registration (with the exception of curatively treated basal or squamous cell carcinoma of the skin, properly treated in situ malignant melanoma, in situ carcinoma of the uterine cervix or pT1-2 prostate cancer with Gleason score ≤6), concomitant use of anti-cancer surgery or radiotherapy (except for local pain control or pleurodesis) and adverse events Grade ≥2 derived from previous treatment.
Lurbinectedin was given every 3 weeks at a dose of 3.2 mg/m^2 as a 1-hour intravenous infusion through peripheral or central lines. Standard antiemetic prophylaxis (corticosteroids or serotonin (5-HT3) antagonists) was administered prior to chemotherapy. […] In case of third re-emergence of Grade 3-4 toxicity treatment was permanently discontinued. Specifically for leucopenia Grade 3-4 and/or febrile neutropenia there was mandatory secondary G-CSF prophylaxis together with dose reduction by one level.
(§2) Patients were followed clinically and with laboratory tests at time of chemotherapy administration and additionally with contrast enhanced CT- or PET/CT scans every 6 weeks. […] In case of treatment discontinuation for any reason, adverse events were reported for 30 days after last treatment application. For those cases where lurbinectedin was stopped without manifest progression radiology scans were performed every 8 weeks during the follow-up period otherwise patients were followed-up via telephone every 12 weeks for survival status.
A Simon two-stage design was used as presented by Simon R. (Control Clin Trials. 1989 Mar;10(1):1-10). We had set our null-hypothesis p0 at PFS12wks ≤35%, translated to a median PFS of ≤ 2 months. […]

[2] = Phase II trial of lurbinectedin monotherapy: adverse events (NCI CTCAE v4.03) and tolerability; format: in vivo
Text: as §1
[…] Standard antiemetic prophylaxis (corticosteroids or serotonin (5-HT3) antagonists) was administered prior to chemotherapy. […] In case of third re-emergence of Grade 3-4 toxicity treatment was permanently discontinued. Specifically for leucopenia Grade 3-4 and/or febrile neutropenia there was mandatory secondary G-CSF prophylaxis together with dose reduction by one level.
as §2

COc1ccc2[nH]c3c(c2c1)CCN[C@]31CS[C@@H]2c3c(OC(C)=O)c(C)c4c(c3[C@H](COC1=O)N1[C@@H]2[C@H]2c3c(cc(C)c(OC)c3O)C[C@@H]([C@@H]1O)N2C)OCO4 (stereo in doubt) [lurbinectedin]
patients with disease control lasting for 8 months or longer ([1]; 6/22 patients): 27.3% | median OS ([1]; <6 months progression-free interval on prior pemetrexed): 8.8 months | median OS ([1]; >=6 months progression-free interval on prior pemetrexed): 13.3 months | PFS12wks ([1]; additional prior immunotherapy): 70% | median OS ([1]; additional prior immunotherapy): 10.4 months | median PFS ([1]; additional prior immunotherapy): 3.2 months | DCR ([1]; all 42 patients): 52.4% | ORR ([1]; all 42 patients): 4.8% | complete remission (CR) ([1]; all 42 patients): One | partial remission (PR) ([1]; all 42 patients): one | stable disease ([1]; all 42 patients): 20 patients | PFS12wks (primary endpoint) reached ([1]; all patients, 22/42, 90% CI 38.7-63.5, p=0.015): 52.4% | PFS12wks, Kaplan-Meier method at 12 weeks ([1]; all patients, 90% CI 49.7-74.4): 63.5% | median PFS ([1]; all patients, 95% CI 2.6-5.5, median follow-up 14.9 months): 4.1 months | 9 months PFS% ([1]; all patients, 95% CI 4.7-24.9): 12.7% | median OS ([1]; all patients, 95% CI 8.8-14.7): 11.1 months | 6 months PFS% ([1]; all patients, 95% CI 17.1-44.9): 30.5% | 12 months OS ([1]; all patients, 95% CI 28.1-60.3): 44.9% | 3 months PFS% ([1]; all patients, 95% CI 41.8-71.7): 58.4% | 6 months OS ([1]; all patients, 95% CI 57.7-84.6): 73.8% | PFS12wks ([1]; epithelioid histology): 63.6% | median OS ([1]; epithelioid histology): 12.4 months | median PFS ([1]; epithelioid histology): 4.1 months | PFS12wks reached (interim analysis) ([1]; first 21 patients, Simon 2-stage, 11 patients): 52.4% | PFS12wks ([1]; non-epithelioid histology): 62.5% | median OS ([1]; non-epithelioid histology): 10.0 months | median PFS ([1]; non-epithelioid histology): 3.7 months | patients who had died at the time of analyses ([1]; of 42, progression 23, viral pneumonitis 1, suicide 1, heart failure 1): 26 patients | median duration of disease control ([1]; patients with CR, PR or SD>=12wks, 95% CI 5.2-7.4): 6.6 months | PFS12wks ([1]; prior chemotherapy alone): 61.4% | median OS ([1]; prior chemotherapy alone): 11.9 months | median PFS ([1]; prior chemotherapy alone): 4.1 months | median PFS ([1]; progressed on previous platinum-pemetrexed in >=6 months): 4.3 months | PFS12wks ([1]; progressed on previous platinum-pemetrexed in >=6 months (28 patients)): 67.9% | median PFS ([1]; progressed on previous platinum-pemetrexed within <6 months): 3.0 months | PFS12wks ([1]; progressed on previous platinum-pemetrexed within <6 months (14 patients)): 53.8% | AEs ([2]; Grade 5, N = 42): 0 (0.0%) n (%) | Lurbinectedin-related AEs ([2]; Grade 5, N = 42): 0.0 (0.0%) n (%) | treatment-related death ([2]; N=42): no treatment-related death | Abdominal pain, lurbinectedin-related AE ([2]; human, in vivo): 1 (2.4%) n (%) | Alkaline phosphatase increased, lurbinectedin-related AE ([2]; human, in vivo): 1 (2.4%) n (%) | Aspartate aminotransferase increased, lurbinectedin-related AE ([2]; human, in vivo): 2 (4.8%) n (%) | Blood bilirubin increased, lurbinectedin-related AE ([2]; human, in vivo): 3 (7.1%) n (%) | Cholangitis, lurbinectedin-related AE ([2]; human, in vivo): 1 (2.4%) n (%) | Confusion, lurbinectedin-related AE ([2]; human, in vivo): 1 (2.4%) n (%) | Cough, lurbinectedin-related AE ([2]; human, in vivo): 1 (2.4%) n (%) | Creatinine increased, lurbinectedin-related AE ([2]; human, in vivo): 1 (2.4%) n (%) | Diarrhea, lurbinectedin-related AE ([2]; human, in vivo): 3 (7.1%) n (%) | Dizziness, lurbinectedin-related AE ([2]; human, in vivo): 2 (4.8%) n (%) | Dry skin, lurbinectedin-related AE ([2]; human, in vivo): 2 (4.8%) n (%) | Dysgeusia, lurbinectedin-related AE ([2]; human, in vivo): 1 (2.4%) n (%) | Dyspepsia, lurbinectedin-related AE ([2]; human, in vivo): 1 (2.4%) n (%) | Dysphagia, lurbinectedin-related AE ([2]; human, in vivo): 1 (2.4%) n (%) | Edema limbs, lurbinectedin-related AE ([2]; human, in vivo): 1 (2.4%) n (%) | Febrile neutropenia, lurbinectedin-related AE ([2]; human, in vivo): 4 (9.5%) n (%) | Flu like symptoms, lurbinectedin-related AE ([2]; human, in vivo): 1 (2.4%) n (%) | Halitosis, lurbinectedin-related AE ([2]; human, in vivo): 1 (2.4%) n (%) | Headache, lurbinectedin-related AE ([2]; human, in vivo): 1 (2.4%) n (%) | Hypertension, lurbinectedin-related AE ([2]; human, in vivo): 1 (2.4%) n (%) | Hypomagnesemia, lurbinectedin-related AE ([2]; human, in vivo): 5 (11.9%) n (%) | Infection of unknown origin, lurbinectedin-related AE ([2]; human, in vivo): 1 (2.4%) n (%) | Infections with unknown origine, lurbinectedin-related AE ([2]; human, in vivo): 1 (2.4%) n (%) | Insomnia, lurbinectedin-related AE ([2]; human, in vivo): 1 (2.4%) n (%) | Lung infection, lurbinectedin-related AE ([2]; human, in vivo): 1 (2.4%) n (%) | Memory impairment, lurbinectedin-related AE ([2]; human, in vivo): 1 (2.4%) n (%) | Pancytopenia, lurbinectedin-related AE ([2]; human, in vivo): 1 (2.4%) n (%) | Productive cough, lurbinectedin-related AE ([2]; human, in vivo): 1 (2.4%) n (%) | Skin infection, lurbinectedin-related AE ([2]; human, in vivo): 1 (2.4%) n (%) | Superficial thrombophlebitis, lurbinectedin-related AE ([2]; human, in vivo): 1 (2.4%) n (%) | Urea increased, lurbinectedin-related AE ([2]; human, in vivo): 1 (2.4%) n (%) | Vertigo, lurbinectedin-related AE ([2]; human, in vivo): 1 (2.4%) n (%) | Watering eyes, lurbinectedin-related AE ([2]; human, in vivo): 1 (2.4%) n (%) | Weight loss, lurbinectedin-related AE ([2]; human, in vivo): 2 (4.8%) n (%) | White blood cell decreased, lurbinectedin-related AE ([2]; human, in vivo): 3 (7.1%) n (%) | all other Grade 3-4 lurbinectedin-related toxicities ([2]; human, in vivo): < 10% | dose reductions for which AEs were the reason ([2]; human, in vivo): 91.7% | fatigue, lurbinectedin-related AE Grade 3-4 ([2]; human, in vivo): 16.7% | febrile neutropenia ([2]; human, in vivo): 9.5% | herpes zoster, lurbinectedin-related AE ([2]; human, in vivo): 1 (2.4%) n (%) | neutropenia, lurbinectedin-related AE Grade 3-4 ([2]; human, in vivo): 23.8% | patients showing no lurbinectedin-related AEs ([2]; human, in vivo): AE: adverse event; ^1: 4 patients (9.5%) showed no lurbinectedin-related AEs | patients with at least one adverse event (AE) of any grade ([2]; human, in vivo): 100% | patients with at least one dose reduction ([2]; human, in vivo): 28.6% | patients with lurbinectedin-related AEs Grade 3-4 ([2]; human, in vivo): 47.6% | patients with treatment delayed at least once ([2]; human, in vivo): 50% | patients with treatment related AEs (any grade) ([2]; human, in vivo): 90.5% | patients with two dose reductions ([2]; human, in vivo): 2/42 | treatment delay caused by AEs ([2]; human, in vivo): 26.2% | Mucositis oral, lurbinectedin-related AE ([2]; human, in vivo, po): 1 (2.4%) n (%) | treatment discontinuation due to toxicity ([2]; in vivo): no treatment discontinuation due to toxicity

B1: G-CSF: granulocyte colony-stimulating factor, given as prophylaxis for leucopenia/febrile neutropenia (protein, UniProt P09919 31-207, looked up)
Granulocyte …: TPLGPASSLPQSFLLKCLEQVRKIQGDGAALQEKLVSECATYKLCHPEELVLLGHSLGIPWAPLSSCPSQALQLAGCLSQLHSGLFLYQGLLQALEGISPELGPTLDTLQLDVADFATTIWQQMEELGMAPALQPTQGAMPAFASAFQRRAGGVLVASHLQSFLEVSYRVLRHLAQP
incidence of grade 3-4 neutropenia ([2]; G-CSF given in patients on lurbinectedin): diminished

Reference: patent US20230241041A1, “LURBINECTEDIN IN THE TREATMENT OF MALIGNANT MESOTHELIOMA” (PHARMA MAR, S.A., priority 2019, published 2023)
